In BigSolDB 2.1:

O=C(O)COc1ccc2ccccc2c1
solubility (mole fraction)
Details | 278.15 K | 283.15 K | 288.15 K | 293.15 K | 298.15 K | 303.15 K | 308.15 K | 313.15 K | 318.15 K | 323.15 K
in acetone | 0.038 | 0.0427 | 0.0481 | 0.0543 | 0.0613 | 0.0693 | 0.0785 | 0.089 | 0.101 | 0.115
in acetonitrile | 0.00475 | 0.00574 | 0.00695 | 0.0084 | 0.0101 | 0.0123 | 0.0148 | 0.0178 | 0.0214 | 0.0258
in ethanol | 0.0128 | 0.0152 | 0.0181 | 0.0217 | 0.0261 | 0.0315 | 0.0383 | 0.0469 | 0.0582 | 0.0728
in ethyl acetate | 0.0145 | 0.0167 | 0.0192 | 0.0221 | 0.0255 | 0.0294 | 0.034 | 0.0393 | 0.0455 | 0.0527
in isobutanol | 0.00557 | 0.00685 | 0.00854 | 0.0106 | 0.0132 | 0.0165 | 0.0208 | 0.0262 | 0.0333 | 0.0422
in isopropanol | 0.00742 | 0.00922 | 0.0115 | 0.0144 | 0.0171 | 0.0217 | 0.0262 | 0.03 | 0.0359 | 0.0407
in isopropyl acetate | 0.0105 | 0.0121 | 0.014 | 0.0162 | 0.0187 | 0.0216 | 0.025 | 0.029 | 0.0336 | 0.039
in methanol | 0.0132 | 0.0157 | 0.0188 | 0.0227 | 0.0276 | 0.0339 | 0.0415 | 0.052 | 0.0656 | 0.0846
in methyl acetate | 0.0156 | 0.0181 | 0.021 | 0.0243 | 0.0283 | 0.0329 | 0.0382 | 0.0445 | 0.0517 | 0.0602
in n-pentanol | 0.0114 | 0.0137 | 0.0164 | 0.019 | 0.0242 | 0.0294 | 0.0362 | 0.0433 | 0.0526 | 0.0691
in n-propanol | 0.0101 | 0.012 | 0.0146 | 0.0178 | 0.0214 | 0.0273 | 0.0324 | 0.04 | 0.0506 | 0.0635
in n-propyl acetate | 0.0123 | 0.0142 | 0.0164 | 0.0189 | 0.0219 | 0.0253 | 0.0293 | 0.0339 | 0.0393 | 0.0454
